Assay [1] in a line: COV434 cell viability loss – plate reader, dry powder, SA7, cytotoxicity control for PAX8 inhibitor project, dose response (AID 743145). Type of assay: functional, cell-based.
Assay [2] can be described thus: inhibitors acting on PAX2 in cells – cell-based, plate reader, dry powder samples, selectivity assay for PAX8 inhibitor project, dose response (AID 743048).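 Also: HEK293 cells carrying a WT1 promoter luciferase reporter driven by expressed Pax2; potency is for inhibition of Pax2 driven reporter signal.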 Type of assay: functional.
Assay [3] can be described thus: OVCAR8 cell viability loss – plate reader, dry powder samples, PAX8 project, dose response (AID 743197). Type of assay: functional, cell-based. Particulars: OVCAR-8.
A short description of assay [4]: OVCAR-3 cell viability loss – plate reader, dry powder samples, PAX8 inhibitor project, dose response (AID 743044). Type of assay: functional, cell-based.
Assay [5] in a line: IGROV1 cell killing – plate reader, dry powder samples, PAX8 inhibitor project, dose response (AID 743043). Type of assay: functional, cell-based. Particulars: IGROV-1.
Assay [6] can be described thus: PAX8-dependent cell viability loss – plate reader, dry powder, dose response (AID 743049). Type of assay: functional, cell-based.
Assay [7] is described as follows: PAX5 cellular inhibition readout – cell-based, plate reader, dry powder samples, selectivity assay for PAX8 inhibitor project, dose response (AID 743047).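 Also: HEK293 cells carrying a Pax5 driven CD19 promoter luciferase reporter; potency of inhibitors that lower reporter luminescence.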 The class given is functional.
The target in a further assay is Paired box protein Pax-8 (Homo sapiens, UniProt Q06710). Nature of the assay: PAX8 transcriptional activity inhibition in RMG-I – RMG-I cells, luciferase, cherry-pick, dose response (AID 687027).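 Also: luciferase reporter driven by Pax8 target thyroperoxidase promoter measured by SteadyGlo luminescence.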 Type of assay: functional, cell-based.
Chain of Paired box protein Pax-8 (Q06710 whole entry): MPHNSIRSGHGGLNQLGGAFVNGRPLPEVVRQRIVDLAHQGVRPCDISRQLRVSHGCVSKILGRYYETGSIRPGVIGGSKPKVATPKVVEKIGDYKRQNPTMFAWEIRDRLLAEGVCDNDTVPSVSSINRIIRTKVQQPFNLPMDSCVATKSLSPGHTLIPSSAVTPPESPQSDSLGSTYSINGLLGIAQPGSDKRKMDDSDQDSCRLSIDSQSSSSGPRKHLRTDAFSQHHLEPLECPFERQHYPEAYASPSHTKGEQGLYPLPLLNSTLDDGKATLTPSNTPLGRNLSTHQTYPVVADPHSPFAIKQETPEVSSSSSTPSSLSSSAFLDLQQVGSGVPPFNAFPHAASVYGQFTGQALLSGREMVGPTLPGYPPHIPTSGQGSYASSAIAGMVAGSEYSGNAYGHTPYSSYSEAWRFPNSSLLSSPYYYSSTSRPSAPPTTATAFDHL
The target in assay [8] is NAD-dependent protein deacylase sirtuin-5, mitochondrial (Homo sapiens, UniProt Q9NXA8). Description: blockers of sirtuin-5 peptide desuccinylation – biochemical, fluorescence imaging, cherry-pick, set 6, dose response (AID 720597).
Chain of NAD-dependent protein deacylase sirtuin-5, mitochondrial (Q9NXA8 whole entry): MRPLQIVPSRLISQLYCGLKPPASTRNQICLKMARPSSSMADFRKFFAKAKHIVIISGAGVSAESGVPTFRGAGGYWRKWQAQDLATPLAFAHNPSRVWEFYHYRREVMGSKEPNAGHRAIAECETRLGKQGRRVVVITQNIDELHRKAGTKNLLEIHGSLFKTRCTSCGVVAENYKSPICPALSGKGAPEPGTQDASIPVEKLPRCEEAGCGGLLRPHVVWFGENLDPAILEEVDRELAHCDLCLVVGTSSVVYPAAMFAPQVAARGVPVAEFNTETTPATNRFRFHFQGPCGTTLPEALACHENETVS
Assay [9] is described as follows: growth inhibition of MALME3 cells – cell-based, CellTiter-Glo luminescence, dry powder, set 5, orthogonal assay for MITF inhibitor project, dose response (AID 651584). The class given is functional. As to conditions: MALME-3.
A short description of assay [10]: growth inhibition of SK-MEL-5 melanoma cells – cell-based, CellTiter-Glo luminescence, dry powder, set 8, orthogonal assay for MITF inhibitor project, dose response (AID 651586). Type of assay: functional.
Assay [11] in a line: MITF: Counter assay: A375 proliferation Measured in Cell-Based System Using Plate Reader - 2084-03_Inhibitor_Dose_DryPowder_Activity_Set8. The class given is functional. As to conditions: A-375.
Assay [12] in a line: MITF Orthogonal Assay: MALME3 CTG Assay Measured in Cell-Based System Using Plate Reader - 2084-04_Inhibitor_Dose_DryPowder_Activity_Set6. Type of assay: functional. As to conditions: MALME-3.
A short description of assay [13]: cytotoxicity in MITF-independent A375 cells – cell-based, CellTiter-Glo luminescence, dry powder, set 9, counter-screen for MITF modulator project, dose response (AID 651591). The class given is functional. As to conditions: A-375.
Assay [14] in a line: inhibitors of TRPM1-promoter reporter in SK-MEL-5 – cell-based, luciferase, dry powder, set 9, MITF inhibitor project, dose response (AID 651588). Type of assay: functional.
The nature of assay [15]: MITF Orthogonal Assay: SK-MEL-5 CTG Assay Measured in Cell-Based System Using Plate Reader - 2084-02_Inhibitor_Dose_DryPowder_Activity_Set7. The class given is functional.
Assay [16] in a line: inhibitors of TRPM1-promoter reporter in SK-MEL-5 – cell-based, luciferase, dry powder, set 8, MITF inhibitor project, dose response (AID 624430). The class given is functional.
Assay [17] has as its target T1, Phospholipase D2 (Homo sapiens, UniProt O14939). Description: PLD2 Cellular Concentration Response Study. Type of assay: functional.
In a further assay the target is Phospholipase D1 (Homo sapiens, UniProt Q13393). Description: PLD1 Cellular Concentration Response Study. Type of assay: functional.
Chain of Phospholipase D1 (Q13393 whole entry): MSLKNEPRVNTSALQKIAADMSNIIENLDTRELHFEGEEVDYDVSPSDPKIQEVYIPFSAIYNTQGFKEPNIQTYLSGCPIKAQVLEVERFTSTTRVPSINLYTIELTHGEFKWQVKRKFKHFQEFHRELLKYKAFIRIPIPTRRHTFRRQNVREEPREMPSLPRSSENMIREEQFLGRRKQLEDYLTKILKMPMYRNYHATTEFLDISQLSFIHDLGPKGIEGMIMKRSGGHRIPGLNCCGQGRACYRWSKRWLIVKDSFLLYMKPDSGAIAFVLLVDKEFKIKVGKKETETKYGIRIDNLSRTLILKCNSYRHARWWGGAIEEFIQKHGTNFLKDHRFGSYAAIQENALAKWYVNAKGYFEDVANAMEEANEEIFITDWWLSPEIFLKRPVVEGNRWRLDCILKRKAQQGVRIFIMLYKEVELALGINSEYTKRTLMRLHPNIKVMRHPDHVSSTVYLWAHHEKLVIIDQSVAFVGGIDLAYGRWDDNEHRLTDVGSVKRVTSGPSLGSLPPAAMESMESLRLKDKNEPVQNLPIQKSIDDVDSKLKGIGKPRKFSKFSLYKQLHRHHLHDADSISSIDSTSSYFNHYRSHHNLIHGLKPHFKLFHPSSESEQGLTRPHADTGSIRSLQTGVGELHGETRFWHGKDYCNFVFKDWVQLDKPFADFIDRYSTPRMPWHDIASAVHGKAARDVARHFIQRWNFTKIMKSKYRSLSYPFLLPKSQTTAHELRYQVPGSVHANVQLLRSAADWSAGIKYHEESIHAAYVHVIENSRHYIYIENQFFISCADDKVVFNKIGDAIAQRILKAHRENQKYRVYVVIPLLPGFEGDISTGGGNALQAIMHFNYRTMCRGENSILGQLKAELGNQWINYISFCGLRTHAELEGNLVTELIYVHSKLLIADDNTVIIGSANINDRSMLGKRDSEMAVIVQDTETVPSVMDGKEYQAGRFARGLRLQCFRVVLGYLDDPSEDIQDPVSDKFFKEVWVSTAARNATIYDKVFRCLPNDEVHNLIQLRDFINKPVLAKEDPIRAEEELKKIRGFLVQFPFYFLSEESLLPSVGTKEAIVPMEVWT
For assay [18], the target named is T1, Phospholipase D2. Description: Discovery of PLD2 inhibitors using the Purified Enzyme Concentration Response Assay. Type of assay: functional.
A short description of assay [19]: TB: CFU replicating Measured in Microorganism System Using Imaging - 7108-05_Inhibitor_Dose_DryPowder_Activity_Set2. Type of assay: functional.
Assay [20] can be described thus: antimalarial activity against Dd2 parasites – SYBR Green fluorescence, erythrocytes, dry powder, set 2, dose response (AID 1159574). Type of assay: functional, cell-based.
The nature of assay [21]: RKO cell viability reduction, dose response, CellTiter-Glo luminescence (AID 1117322). The class given is functional.
Assay [22] in a line: Reduced DLD-1 viability, concentration-response, CellTiter-Glo luminescence (AID 1117352). Type of assay: functional.
Assay [23] can be described thus: CellTiter-Glo luminescence survival assay, SW480 colon tumor line, concentration-response curve, half-maximal inhibitory concentration (AID 1117338). Type of assay: functional.
Assay [24] is described as follows: cytotoxicity toward HCT116 cells – cell-based, CellTiter-Glo luminescence, IC50, dose response (AID 1117332). Particulars: HCT-116. Type of assay: functional.
Assay [25] is described as follows: cytotoxicity toward HT-29 cells – cell-based, CellTiter-Glo luminescence, IC50, dose response (AID 1117330). Type of assay: functional.
The nature of assay [26]: SNU-C1 cell viability reduction, dose response, CellTiter-Glo luminescence (AID 1117323). The class given is functional, cell-based.
A short description of assay [27]: rise of 2N DNA cells, HeLa – IC50, dose response (AID 1117349). The class given is functional, cell-based.
Assay [28] in a line: rise of 4N DNA cells, HeLa – IC50, dose response (AID 1117351). Type of assay: functional, cell-based.
Assay [29] in a line: HCT116 cell viability decrease, GSK3B pretreatment – CellTiter-Glo, IC50, dose response (AID 1117339). The class given is functional. As to conditions: HCT-116.
Assay [30] is described as follows: cytotoxicity toward Colo320 cells – cell-based, CellTiter-Glo luminescence, IC50, dose response (AID 1117334). The class given is functional. Particulars: COLO 320.

Structures are written as SMILES. The source made the active and inactive calls.

T1 sequence (O14939 whole entry): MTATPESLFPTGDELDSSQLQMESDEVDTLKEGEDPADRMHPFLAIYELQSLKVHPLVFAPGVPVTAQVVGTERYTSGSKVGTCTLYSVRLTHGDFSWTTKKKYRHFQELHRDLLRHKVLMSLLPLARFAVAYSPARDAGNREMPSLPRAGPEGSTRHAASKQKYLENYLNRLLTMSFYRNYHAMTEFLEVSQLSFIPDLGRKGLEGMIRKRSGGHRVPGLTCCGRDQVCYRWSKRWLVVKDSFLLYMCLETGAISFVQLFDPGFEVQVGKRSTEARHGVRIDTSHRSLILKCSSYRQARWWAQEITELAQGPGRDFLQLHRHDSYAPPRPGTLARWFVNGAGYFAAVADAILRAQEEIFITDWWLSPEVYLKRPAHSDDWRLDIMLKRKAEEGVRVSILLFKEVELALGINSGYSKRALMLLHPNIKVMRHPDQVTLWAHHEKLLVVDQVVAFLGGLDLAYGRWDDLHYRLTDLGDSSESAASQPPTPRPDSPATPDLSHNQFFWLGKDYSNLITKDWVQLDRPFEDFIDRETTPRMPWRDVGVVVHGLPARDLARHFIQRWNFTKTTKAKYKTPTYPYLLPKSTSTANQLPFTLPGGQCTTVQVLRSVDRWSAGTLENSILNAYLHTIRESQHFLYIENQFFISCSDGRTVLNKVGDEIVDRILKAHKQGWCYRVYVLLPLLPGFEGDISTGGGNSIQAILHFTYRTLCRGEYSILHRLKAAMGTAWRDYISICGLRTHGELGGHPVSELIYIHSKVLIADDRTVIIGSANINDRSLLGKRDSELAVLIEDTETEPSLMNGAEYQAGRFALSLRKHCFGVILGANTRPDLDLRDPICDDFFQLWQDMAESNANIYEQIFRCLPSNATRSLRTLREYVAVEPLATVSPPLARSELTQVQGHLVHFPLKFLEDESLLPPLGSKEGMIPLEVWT

Turning to `O=C(C[C@H]1CC[C@H]2[C@@H](COC[C@@H](O)CN2S(=O)(=O)c2cccc(Cl)c2)O1)Nc1ccc(-c2ccccc2)cc1`, the AC50 in assay [1] is 37.9 µM (active); in assay [2] it was 8.55 µM (active); in [3], 27.7 µM (active); in assay [4], 43 µM (active); in assay [5], 31.2 µM (active); in assay [6], 20.3 µM (active). For the same molecule, the values for the AC50 (in assay [7]; at Paired box protein Pax-8) were 3.85 µM (active) and 8.28 µM (active), respectively.

With `CC(C)CC#Cc1ccc2c(c1)O[C@@H](CN(C)S(=O)(=O)c1cccc(F)c1)[C@H](C)CN([C@H](C)CO)S2(=O)=O`, the AC50 in [8] was 26.3 µM (active).

`O=C1C(Nc2ccc(Cl)cc2)=C(N2CCCC2)C(=O)c2ccccc21`: the AC50 is 39.2 µM (active) in [9]; > 70 µM (inactive) in [10]; 41.5 µM (active) in assay [11]; 39.2 µM (active) in assay [12]; 50.9 µM (active) in assay [13]; 31.6 µM (active) in [14]. Besides, the AC50 is 1.77 µM (active) in assay [15] and 3.48 µM (active) in [16].

Turning to `O=C(NCCN1CCC2(CC1)C(=O)NCN2Cc1cccnc1)c1ccc2ccccc2c1`, the IC50 on Phospholipase D2 [17] was 0.46 µM (active); on Phospholipase D1, 20 µM (active); on Phospholipase D2 [18], 8.7 µM (active).

`Cn1c(NC(=O)c2ccccc2)nc2ncccc21`: in [19], the AbsAC90 was determined as 724.55 µM.

For `COc1ccc(S(=O)(=O)N(C)C[C@H]2OCc3ccccc3-c3c(n(C)c4ccccc34)C(=O)N([C@@H](C)CO)C[C@@H]2C)cc1`, in assay [20], the AC50 was 1.47 µM (active).

As for `O=C(O)CCc1nc2ccccc2[nH]1` [PROCODAZOLE], the IC50 in assay [21] is > 20 µM (inactive); in assay [22], 2.42 µM (active); in assay [23] it was > 20 µM (inactive); in [24], > 20 µM (inactive); in assay [25], > 20 µM (inactive); in assay [26], > 20 µM (inactive). In addition, the IC50 in assay [27] is > 10 µM (inactive); in [28], > 10 µM (inactive); in [29], 2.2 µM (active); in assay [30] it was > 20 µM (inactive).

The record behind these values is ChEMBL document CHEMBL1201862, “PubChem BioAssay data set” (2004).
